Reference: patent US20070258970A1, “Methods for Inhibiting Hiv and Other Viral Infections by Modulating Ceramide Metabolism” (priority 2003, published 2007)

Columns and labels:
[1] = test system: Sendai virus; experiment: R18 fluorescence dequenching viral fusion assay; settings: increasing concentrations, 37° C., pH7; FIG. 9
Method: To further probe how ceramide accumulation might inhibit viral fusion, viral fusion was monitored using a well-established octadecyl rhodamine (R18) fluorescence dequenching (R18-fdq) assay. In this assay system R18-labeled Sendai virus was incubated with control or a 4-HPR compound treated cells for 30 min at 4° C. to allow for virus binding. Small aliquots of virus-cell complexes were added to a stirred cuvette at 37° C. containing 2 ml buffer at pH7. Fluorescence increases were recorded with a 1 sec time resolution in a SLM8000 spectrofluorimeter (SLMInstruments, Urbana, Ill.). […] This increase in fluorescence reflects dequenching of R18 upon the merging of viral and cell membranes.

[2] = test system: HIV-1 gp160 (HXB2); experiment: Cell-cell fusion assay (HeLa cells expressing HIV-1 gp160 with TMZ target cells, luciferase); settings: pretreated target cells, alone or combined; FIG. 8B
Method: Target TMZ cells were plated at 0.75×10^4 cells per well in a 96 well plate and treated with a 4-BPR compound for 48 hours with 5% CO2 in a humidified incubator. HeLa cells expressing HUV-1 gp160 (HXB2) in addition to gag, tat, rev and nef were then cocultured with target cells containing the tat inducible luciferase reporter cassette. Envelope and target cells were cocultivated at 37° C. for 7 hours. Luciferase activity was then measured using a Promega (Madison, Wis.) luciferase assay system kit. Briefly, the supernatants were removed and the cells were lysed with Steady Glo luciferase assay system. The light intensity of each well was measured on a Reporter luminometer. Mock-infected cells were used to determine background luminescence. All infectivity assays were performed in duplicate.
Briefly, HeLa cells expressing HIV-1 gp160 (HXB2) in addition to gag, tat, rev and nef were cocultured with CD4 positive target cells containing the tat inducible luciferase reporter cassette. […] Envelope and target cells were cocultivated at 37° C. for 7 hours following which the cells were lysed and luciferase activity quantitated.

[3] = test system: HIV-1; type: cell-based
[4] = test system: ceramide; experiment: Ceramide quantitation by [3H]sphingosine incorporation in HeLa-derived target cells; type: cell-based
[5] = test system: cells; experiment: Apoptotic effects on the cells by annexin 5 staining / toxicity; type: cell-based; settings: at the low concentrations that inhibit HIV-1
[6] = test system: CCR5; experiment: Flow cytometry of cell surface CCR5 on TMZ cells; type: cell-based
Method: (§1) TMZ cells, harvested with trypsin-EDTA in PBS, were centrifuged at 450×g and resuspended at 10^6 cells/ml in PBS-5% FBS-5% normal mouse serum. After incubation for 15 min at room temperature, the cells were washed twice in PBS-0.1% bovine serum albumin and resuspended in 100 μl of PBS-5% FBS-5% normal mouse serum. 20 μl of Phycoerythrin (PE)-conjugated mouse immunoglobulin G (IgG) anti-CD4, PE-conjugated mouse IgG anti-CXCR4, or PE-conjugated mouse IgG anti-CCR5, from Becton Dickenson (San Jose, Calif.) was then added to each sample. Cells were incubated at 4° C. for 1 hour and washed twice in PBS-0.1% BSA. Samples were fixed in PBS-1% paraformaldehyde and resuspended in 1 ml of PBS to be read by a FACScalibur instrument (Becton Dickinson, San Jose, Calif.) at 10,000 events/sample with respect to unlabeled cells.
(§2) Increasing ceramide concentrations is thought to perturb membrane properties due to the hydrophobic nature of this lipid and the tendency to self aggregate. The possible consequences of membrane altering properties on the cell surface expression of the main HIV receptors, CD4, X4 and R5, was investigated. […] CD4 expression decreases in a dose dependent manner from a control level of 100% to levels of 70%, 57% and 27% following treatment with 2, 5 and 10 μM of a 4-HPR compound respectively.

[7] = test system: HIV-1; experiment: HIV-1 infection of primary monocyte derived macrophages; type: cell-based; settings: low uM concentrations, pretreated 2 days
[8] = test system: VSV pseudotyped HIV-1; type: cell-based
[9] = test system: CXCR4; experiment: Flow cytometry of cell surface CXCR4 on TMZ cells; type: cell-based; settings: 2 μM
Method: as §1, §2

[10] = test system: CD4; experiment: Flow cytometry of cell surface CD4 on TMZ cells; type: cell-based
Method: as §1, §2

[11] = test system: ceramide; experiment: Ceramide level in monocyte derived macrophages; settings: 5 uM

CC1=C(/C=C/C(C)=C/C=C/C(C)=C/C(=O)Nc2ccc(O)cc2)C(C)(C)CCC1 [4-HPR compound, N-(4-hydroxyphenyl)retinamide]
inhibition of Sendai virus fusion (R18 fluorescence dequenching) [1]: dose dependent inhibition | inhibition of fusion [2]: 20% | inhibition of HIV-1 isolates ([3]; X4 (NL4-3, MN), R5 (Bal, JRCSF) and primary isolates, FIG. 3b): dose-dependent inhibition | increase in ceramide ([4]; HeLa cells, 5 uM): 1.7 fold | toxicity [5]: minimal toxicity | CCR5 expression ([6]; 2 μM): 60% | CCR5 expression ([6]; 5 μM): 30% | CCR5 expression ([6]; 10 μM): 7% | HIV-1 infection of macrophages, CCR5 tropic isolate (BaL) ([7]; FIG. 6A): Infection inhibition was observed | HIV-1 infection of macrophages, primary isolate ([7]; FIG. 6B): Infection inhibition was observed | infectivity of VSV pseudotyped HIV-1 [8]: not impaired | CXCR4 expression [9]: 18% | CD4 expression (control level 100%) ([10]; 2 μM): 70% | CD4 expression (control level 100%) ([10]; 5 μM): 57% | CD4 expression (control level 100%) ([10]; 10 μM): 27% | increase in ceramide [11]: 1.12 fold

CCCCCCCCCCCCC/C=C/[C@@H](O)[C@H](CO)NC(=O)CCCCCCCCCCCCCCC [C16, C16 ceramide]
inhibition of HIV infection ([3]; pretreatment with 1 μM lipid for 10 minutes at 37° C., FIG. 5): approximately 60%

CCCCCCCCCCCCCCCC(=O)NC(CN1CCOCC1)C(O)c1ccccc1 (centres unmarked) [PPMP, 1-phenyl-2-hexadecanoylamino-3-morpholino-1-propanol]
inhibition of fusion [2]: ineffective

sphingomyelinase
inhibition of HIV-1 infection [3]: 60-70% | ceramide levels following enzymatic activity ([4]; sphingomyelinase pretreated cells): increased
